Laboratory results: patent publication US20220041641A1, “QUATERNARY AMMONIUM SALTS AS INHIBITORS OF TRIMETHYLAMINE PRODUCTION” (Senda Biosciences, Inc., priority 2018, published 2022)
pIC50: −log10 of the molar value. Structures can show the parent of a compound that is named as a salt.

Assays:
[1] = target: CutC from Proteus mirabilis (Proteus mirabilis, UniProt B4EYG1); assay: Cell-based assay for TMA production from a native producer (P. mirabilis); details: d9-TMA from 1 mM d9-choline, 5 h, 37° C.; value 10 given when no fit or % TMA remaining at 10 μM higher than 15%; read-out: Average IC50 Whole cell P. mirabilis
Sequence of CutC from Proteus mirabilis (B4EYG1 entry or part of it): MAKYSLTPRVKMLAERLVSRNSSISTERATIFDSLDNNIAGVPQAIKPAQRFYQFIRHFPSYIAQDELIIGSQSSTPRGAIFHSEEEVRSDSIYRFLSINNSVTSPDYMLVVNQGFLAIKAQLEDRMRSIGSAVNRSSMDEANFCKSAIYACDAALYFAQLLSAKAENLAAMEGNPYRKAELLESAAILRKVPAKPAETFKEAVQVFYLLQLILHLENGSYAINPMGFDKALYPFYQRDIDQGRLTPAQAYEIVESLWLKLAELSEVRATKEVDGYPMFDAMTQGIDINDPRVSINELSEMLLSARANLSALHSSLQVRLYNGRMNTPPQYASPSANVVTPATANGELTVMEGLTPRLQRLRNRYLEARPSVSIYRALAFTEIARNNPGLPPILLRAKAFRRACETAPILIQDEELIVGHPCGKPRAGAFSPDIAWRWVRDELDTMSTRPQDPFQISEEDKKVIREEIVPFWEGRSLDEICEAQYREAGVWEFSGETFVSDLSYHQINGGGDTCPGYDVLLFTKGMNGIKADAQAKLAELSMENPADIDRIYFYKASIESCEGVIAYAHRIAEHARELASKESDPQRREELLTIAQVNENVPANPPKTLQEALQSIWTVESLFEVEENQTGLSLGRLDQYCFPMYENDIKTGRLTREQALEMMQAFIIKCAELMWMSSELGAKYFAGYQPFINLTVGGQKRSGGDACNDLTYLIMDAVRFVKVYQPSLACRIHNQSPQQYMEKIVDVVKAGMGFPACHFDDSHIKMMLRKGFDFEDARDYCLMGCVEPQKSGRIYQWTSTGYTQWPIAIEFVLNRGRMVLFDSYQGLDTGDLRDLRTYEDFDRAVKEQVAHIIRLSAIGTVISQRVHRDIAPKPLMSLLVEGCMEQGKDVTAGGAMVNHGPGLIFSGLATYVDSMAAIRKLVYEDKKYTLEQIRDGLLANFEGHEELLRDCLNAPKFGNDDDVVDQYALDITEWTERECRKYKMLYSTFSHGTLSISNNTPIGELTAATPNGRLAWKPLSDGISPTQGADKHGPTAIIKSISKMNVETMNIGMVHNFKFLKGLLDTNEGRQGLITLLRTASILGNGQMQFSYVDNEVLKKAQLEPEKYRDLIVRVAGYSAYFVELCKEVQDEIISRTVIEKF
Sequence of CutC from Proteus mirabilis (B4EYG0 entry or part of it, further chain): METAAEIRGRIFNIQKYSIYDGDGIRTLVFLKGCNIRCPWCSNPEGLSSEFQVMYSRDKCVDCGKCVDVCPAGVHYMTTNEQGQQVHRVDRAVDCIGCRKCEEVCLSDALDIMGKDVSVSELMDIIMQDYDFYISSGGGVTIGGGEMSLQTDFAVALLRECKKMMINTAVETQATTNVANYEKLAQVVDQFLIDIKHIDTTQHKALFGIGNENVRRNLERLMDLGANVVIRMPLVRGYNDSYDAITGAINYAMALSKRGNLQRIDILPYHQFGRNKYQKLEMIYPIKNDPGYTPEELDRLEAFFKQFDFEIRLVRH
Outline: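 Overnight anaerobic cultures of P. mirabilis or C. sporogenes, grown in BHI with 1 mM choline, were diluted and given 1 mM (trimethyl-d9)-choline plus compound at 10 μM final. After 5 h at 37° C., d9-TMA was quantified by LCMS.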

CutC/D enzyme = assay: Acute mouse model (plasma TMAO on choline diet); type: in vivo, male C57BL/6 mice
Outline: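 Male C57BL/6 mice fed a diet with 1.0% choline (g/g) received compound in water by oral gavage once daily on days 1–3. Plasma taken 20 h after the last dose was protein-precipitated and TMAO quantified by LC-MS/MS against a 0.05-100 μM d9-TMAO calibration curve in control plasma.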

[2] = type: in vitro ADME; details: simulated gi fluid, 1 µM, pH 1.6
Protocol: This assay was used to assess the stability of a conjugate in a stomach.
Medium was prepared by dissolving 2 g of sodium chloride in 0.6 L in ultrapure water (MilliQ®, Millipore Sigma, Darmstadt, Germany). The pH was adjusted to 1.6 with 1N hydrochloric acid, and the volume was then adjusted to 1 L with purified water.
60 mg FaSSIF powder (Biorelevant™, London, UK) were dissolved in 500 mL buffer (above). Pepsin was added (0.1 mg/mL) (Millipore Sigma, Darmstadt, Germany), and the solution was stirred. The resulting SGF media were used fresh for each experiment.
(§1) Test compounds were dissolved in DMSO stock to 1 mM. An aliquot of the DMSO stock solution was removed and diluted in the SGF Media in 15 mL falcon tubes to generate a total compound concentration of 1 μM. A 1 mL aliquot was immediately removed and diluted once with 1 volume of acetonitrile for T0 timepoint. The mixture was sealed and mixed at 37° C. in an incubator. Aliquots (1 mL) were removed at regular intervals and immediately quenched by the addition of 1 volume of acetonitrile. The resulting samples were analyzed by LCMS to determine degradation rates in SGF.

[3] = type: in vitro ADME; details: simulated gi fluid, 1 µM, pH 6.7
Protocol: This assay was used to assess the stability of a conjugate in a small intestine.
Phosphate buffer was prepared by dissolving 0.42 g of sodium hydroxide pellets and 3.95 g of monobasic sodium phosphate monohydrate and 6.19 g of sodium chloride in ultrapure water (MilliQ®, Millipore Sigma, Darmstadt, Germany). The pH was adjusted to 6.7 using aq. HCl and aq. NaOH, as necessary, and the solution was diluted with ultrapure water to produce 1 L of the pH 6.7 buffer.
112 mg FaSSIF powder (Biorelevant™, London, UK) was dissolved in 50 mL of the pH 6.7 buffer. 2 to 3 mL of the resulting solution were then added to 500 mg pancreatin (Millipore Sigma, Darmstadt, Germany). The resulting mixture was agitated by finger tapping the vessel containing the mixture until milky suspension formed. At this time, the remainder of the 50 mL FaSSiF/pH 6.7 buffer solution was added. The resulting suspension was flipped upside down 10 times to produce SIF, which was used fresh.
as §1, with “SIF media” for “SGF Media”, “produce” for “generate”, “mixture with a tested” for “total”, “agitated” for “mixed”, “rates.” for “rates in SGF.”

[4] = type: in vitro ADME; details: 1 µM
Protocol: This assay was used to assess the stability of a conjugate in a large intestine.
All experiments were performed in an anaerobic chamber containing 90% nitrogen, 5% hydrogen and 5% carbon dioxide. Colonic material was resuspended as a slurry (15% w/v final concentration) in pre-reduced, anaerobically sterilized dilution blanks (Anaerobe Systems AS-908). The colonic material was then inoculated into 96 well plates containing YCFAC media (Anaerobe Systems AS-680, 6.7 μL slurry into 1 mL total media). A compound was added to each individual well to reach a final analyte concentration of 1 μM, and the material was mixed by pipetting. Each sample was removed after set timepoints (0, 120, 240, 480, 1440, 2880 minutes after initiation of the assay), quenched with acetonitrile containing internal standard, and analyzed by LCMS.

in vivo = assay: in vivo; set-up: species or system Sprague-Dawley rats; details: Sprague-Dawley, rat
Protocol: Sprague-Dawley rats (three rats per compound) were treated with a single intravenous (IV) 1 mg/kg dose or orally (PO) a single 10 mg/kg dose. Plasma concentrations of the conjugates were determined by LCMS at 5 minutes, 15 minutes, 30 minutes, 1 hour, 2 hours, 4 hours, 8 and 24 hours post compound administration. […] In addition, the plasma exposure and bioavailability of the active agent of was lower when dosed as a conjugate instead of the active agent alone.

[5] = Pharmacokinetic study of colon contents and plasma after oral dose of conjugate; type: in vivo, male C57B3L/6 mice; details: in vivo, po
Protocol: To confirm that the active agent component of the conjugate is released in the gastrointestinal tract, a pharmacokinetic study was conducted in male C57B3L/6 mice examining conjugate and active agent of concentrations in both the colon contents and plasma after oral dose of conjugate. Conjugate and active agent of were quantified by LCMS at 0 (pre-dose), 0.25, 0.5, 1, 2, 4, 6, 8, 12, and 24 hours post-dose of compound.

SMILES | pIC50 [1] | Assay 1- FaSSGF Stability: % Remaining at 1 hr [2] [%] | Assay 2- FaSSIF Stability: % Remaining at 4 hr [3] [%] | Assay 3- Colonic Material Stability Assay % Remaining at 24 hr [4] [%] | further results
C#CC[N+](C)(C)CCO[C@@H]1OC[C@@H](OC(C)=O)[C@H](OC(C)=O)[C@H]1OC(C)=O.[I-] [Compound 8, N,N-dimethyl-N-(2-(((3R,4S,5R)-3,4,5-triacetoxytetrahydro-2H-pyran-2-yl)oxy)ethyl)prop-2-yn-1-aminium iodideiodideiodideiodideiodide] | ≤ 5.00 | 105.93 | 113.28 | 17 | % change from vehicle control + choline diet (CutC/D enzyme; Table 4d, 100 mg/kg oral gavage days 1-3): −33%; Mean plasma TMAO (CutC/D enzyme; Table 4d, 100 mg/kg oral gavage days 1-3, plasma 20 h after last gavage): 12.5 µM
Br.C#CC[N+](C)(C)CC(=O)O[C@@H]1CO[C@H]2[C@@H]1OC[C@@H]2O [Compound 73, N-(2-(((3R,3aR,6S,6aR)-6-hydroxyhexahydrofuro[3,2-b]furan-3-yl)oxy)-2-oxoethyl)-N,N-dimethylprop-2-yn-1-aminium bromide] | ≤ 5.00 | 107.49 | 62.73 | 44 | –
C#CC[N+](C)(C)CCO[C@@H]1CO[C@H]2[C@@H]1OC[C@@H]2O [Compound 72, N-(2-(((3R,3aR,6S,6aR)-6-hydroxyhexahydrofuro[3,2-b]furan-3-yl)oxy)ethyl)-N,N-dimethylprop-2-yn-1-aminium trifluoroacetate] | ≤ 5.00 | 102.71 | – | 110 | –
CC(=O)OCC1OC(OCC[N+](C)(C)CCl)C(OC(C)=O)C(OC(C)=O)C1OC(C)=O.[I-] (stereo in doubt) [Compound 78, N-(chloromethyl)-N,N-dimethyl-2-(((2S,3S,4R,5S,6S)-3,4,5-triacetoxy-6-(acetoxymethyl)tetrahydro-2H-pyran-2-yl)oxy)ethan-1-aminium Iodide] | – | – | – | – | Cmax (in vivo; iv, 1 mg/kg): 8310 nM; % F (in vivo; po, 10 mg/kg): 1.91%; Cmax (in vivo; po, 10 mg/kg): 130 nM; bioavailability (in vivo; po, 10 mg/kg): 0.99%; Cmax ([5]; male, C57B3L/6, mouse): 70 nM; Plasma Cmax ([5]; mouse): Not
C#CC[N+](C)(C)CC(=O)O[C@@H]1O[C@H](COC(C)=O)[C@@H](OC(C)=O)[C@H](OC(C)=O)[C@H]1OC(C)=O [Compound 303, N,N-dimethyl-N-(2-oxo-2-(((2S,3R,4S,5R,6R)-3,4,5-triacetoxy-6-(acetoxymethyl)tetrahydro-2H-pyran-2-yl)oxy)ethyl)prop-2-yn-1-aminium Trifluoroacetate] | – | 60.49 | 0.03 | 0.16 | –
C#CC[N+](C)(C)CC(=O)OC[C@H]1OC(OC(C)=O)[C@H](OC(C)=O)[C@@H](OC(C)=O)[C@@H]1OC(C)=O.O=C([O-])C(F)(F)F (stereo partly drawn) [Compound 304, N,N-dimethyl-N-(2-oxo-2-(((2R,3R,4S,5R)-3,4,5,6-tetraacetoxytetrahydro-2H-pyran-2-yl)methoxy)ethyl)prop-2-yn-1-aminium Trifluoroacetate] | – | 114.28 | 13.44 | 0.94 | –
C#CC[N+](C)(C)CC(=O)O[C@H]1CO[C@H]2[C@@H]1OC[C@H]2O.O=C([O-])C(F)(F)F [Compound 70, N-(2-(((3S,3aR,6R,6aR)-6-hydroxyhexahydrofuro[3,2-b]furan-3-yl)oxy)-2-oxoethyl)-N,N-dimethylprop-2-yn-1-aminium trifluoroacetate] | ≤ 5.00 | 98.36 | 28.06 | 47 | –
C#CC[N+](C)(C)CCO[C@H]1CO[C@H]2[C@@H]1OC[C@H]2O [Compound 74, N-(2-(((3S,3aR,6R,6aR)-6-hydroxyhexahydrofuro[3,2-b]furan-3-yl)oxy)ethyl)-N,N-dimethylprop-2-yn-1-aminium trifluoroacetate] | ≤ 5.00 | 107.3 | 121.56 | 99 | –
C#CC[N+](C)(C)CCO[C@@H]1O[C@H](COC(=O)CCC)[C@@H](OC(=O)CCC)[C@H](OC(=O)CCC)[C@H]1OC(=O)CCC.[I-] [Compound 1, N,N-dimethyl-N-(2-(((2R,3R,4S,5R,6R)-3,4,5-tris(butyryloxy)-6-((butyryloxy)methyl)tetrahydro-2H-pyran-2-yl)oxy)ethyl)prop-2-yn-1-aminium iodide] | – | 84.79 | 30.79 | 80 | –
CC(=O)OC[C@H]1O[C@@H](OCC[N+](C)(CF)C2CC2)[C@H](OC(C)=O)[C@@H](OC(C)=O)[C@@H]1OC(C)=O.[I-] (stereo partly drawn) [Compound 86, N-(fluoromethyl)-N-methyl-N-(2-{[(2R,3R,4S,5R,6R)-3,4,5-tris(acetyloxy)-6-[(acetyloxy)methyl]oxan-2-yl]oxy}ethyl)cyclopropanaminium Iodide] | ≤ 5.00 | – | – | 56 | % change from vehicle control + choline diet (CutC/D enzyme; Table 4g, 37.3 mg/kg oral gavage days 1-3): −33%; Mean plasma TMAO (CutC/D enzyme; Table 4g, 37.3 mg/kg oral gavage days 1-3, plasma 20 h after last gavage): 18.6 µM; % change from vehicle control + choline diet (CutC/D enzyme; Table 4g, 112 mg/kg oral gavage days 1-3): −83%; Mean plasma TMAO (CutC/D enzyme; Table 4g, 112 mg/kg oral gavage days 1-3, plasma 20 h after last gavage): 4.72 µM
